Source: BigSolDB 2.1

O=C(O)c1ccccc1Nc1ccccc1
solubility (mole fraction)
Settings	in ethanol	in methanol	in tert-butanol
283.15 K	0.0101	0.00519	–
285.65 K	0.0107	0.00556	–
288.15 K	0.0112	0.00606	–
290.65 K	0.0112	0.00653	–
293.15 K	0.0123	0.00701	–
295.65 K	0.0131	0.0073	–
298.15 K	0.0136	0.00796	0.0189
300.65 K	0.0144	0.00837	0.02
303.15 K	0.0154	0.00883	0.0225
305.65 K	0.0163	0.00916	0.0256
308.15 K	0.0175	0.00971	0.0279
310.65 K	0.0187	0.0103	0.0298
313.15 K	0.02	0.0117	0.0319
315.65 K	0.0221	0.0134	0.0353
318.15 K	0.0242	0.0156	0.0389
